Test results published in BigSolDB 2.1.

COc1ccc([C@@H]2CC(=O)c3c(O)cc(O[C@@H]4O[C@H](CO[C@@H]5O[C@@H](C)[C@H](O)[C@@H](O)[C@H]5O)[C@@H](O)[C@H](O)[C@H]4O)cc3O2)cc1O
Settings | solubility (mole fraction)
in PEG-400, 298.15 K | 0.00633
in PEG-400, 303.15 K | 0.00749
in PEG-400, 313.15 K | 0.00985
in PEG-400, 323.15 K | 0.0124
in PEG-400, 333.15 K | 0.0152

solubility (mole fraction)
Settings | in ethanol | in isopropanol | in n-butanol | in propylene glycol | in water
298.15 K | 3.45e-05 | 1.53e-05 | 0.000315 | 0.000535 | 1.47e-07
303.15 K | 3.95e-05 | 1.87e-05 | 0.000359 | 0.000647 | 1.52e-07
313.15 K | 5.27e-05 | 2.61e-05 | 0.000461 | 0.000886 | 1.61e-07
323.15 K | 6.56e-05 | 3.82e-05 | 0.000582 | 0.00114 | 1.7e-07
333.15 K | 8.45e-05 | 5.86e-05 | 0.000715 | 0.00158 | 1.8e-07
